Experimental data published in patent US9714247B2, “Multiple kinase pathway inhibitors” (Mannkind Corporation, priority 2012, dated 2017).

What was measured:
DoHH2 = test: Apoptosis by flow cytometry (Annexin V / 7AAD); assay type: cell-based, human; settings: for Percent Apoptosis DOHH2: Table 5, 6 hours
Text: Activation of Tec family kinases including BTK, and/or Src kinase family members, regulates cell survival and cell death in normal B cells, lymphomas, and solid tumors. Apoptosis is a programmed cell death characterized by specific changes in cell morphology. […] Staurosporine was used as a positive control for apoptosis. […] Table 6 illustrates that several amino naphthyridinones induce significant apoptosis in DoHH2 cells.

[1] = tested on: PLC-γ2 phosphorylation in DoHH-2; test: PLCγ2 phosphorylation by flow cytometry; assay type: cell-based, human; settings: DoHH-2, increasing concentrations (data not shown)
Method: PLCγ2 phosphorylation was also assessed by flow cytometry. Cells were similarly stimulated and following stimulation, Cytofix buffer (Becton Dickinson) was added, cells were centrifuged and the cell pellets incubated on ice with Phosflow perm buffer III (Becton Dickinson). These cell pellets were washed with Perm/Wash buffer (Becton Dickinson); resuspended and labeled for flow cytometry analysis in a staining mixture containing Perm/Wash buffer and PE-labeled anti-phosphoPCLγa2 (Tyr1217) antibody (Becton Dickinson). The samples were washed with Perm/Wash buffer and analyzed on a FACS Calibur flow cytometer using CellQuest Pro software. As mentioned for the Western blot experiments, phosphorylation of PLCγ2 at Tyr1217 along with Tyr753, Tyr759 and Tyr1197 is correlated with increased PLCγ2 activity. The readout for BTK network signaling was inhibition of phosphorylation of PLCγ2. Cells were gated to exclude dead or dying cells. Fluorescence signals from the antibody staining were plotted in logarithmic units and data was analyzed using Cellquest Pro software. […] An ED50 was calculated based on the geometric mean of fluorescence intensity observed for treatment for four different concentrations of the inhibitors (see Table 7 and FIG. 6). […] Thus treatment with amino naphthyridinones inhibits PLCγ2 phosphorylation consistent with inhibition of BTK and/or LYN activity.

CCN(CC)CCOc1ccc(Nc2cc3c(cn2)cc(-c2ccccc2)c(=O)n3CC)nc1 [Compound 1, 7-[5-(2-Diethylamino-ethoxy)-pyridin-2-ylamino]-1-ethyl-3-phenyl-1H-[1, 6]naphthyridin-2-one]
Percent Apoptosis DOHH2 (DoHH2; 1 uM): 4.43% | Percent Apoptosis DOHH2 (DoHH2; 2 uM): 29.84% | Percent Apoptosis DOHH2 (DoHH2; 5 uM): 21.76% | Percent Apoptosis DOHH2 (DoHH2; 10 uM): 37.52% | Percent Apoptosis at 2 uM (DoHH2; Table 6, DOHH2, 2 uM): 26.2% | Percent Apoptosis at 5 uM (DoHH2; Table 6, DOHH2, 5 uM): 32.58% | Inhibition of PLC-γ2 phosphorylation (flow cytometry) [1]: dose dependent decrease in PLC-γ2 phosphorylation
